Assay results as given in patent publication US12410161B2, “Tetrahydrobenzo-quinoline sulfonamides derivative compounds” (UCB Biopharma SRL, priority 2019, dated 2025).

Biological target: T1, IgE-Tb binding to soluble IgE receptor FcεRIα-Y131A-AF488 (Homo sapiens, UniProt P0DOX4, N265Q/N371Q)
T1 construct: 86 nmoles of IgE-Fc(N265Q, N371Q) (Young et al., 1995)
Assay: In vitro FRET assay of IgE-Tb binding to FcεRIα receptor (protocol for most examples, 2 hours incubation)
Settings: 5 nM IgE-Tb, 25 nM FcεRIα-Y131A-AF488; incubated 2 hours at room temperature; read-out: FRET IC50 range
Method: In vitro Biochemical Assay: Protocol for preparation of IgE-Tb reagent 86 nmoles of […]) (Young et al., 1995) at 172 μM in 100 mM NaHCO3, pH 9.5 was added to 1 mg of LanthaScreenTM Amine Reactive Tb Chelate (ThermoFisher catalogue number PV3583) and incubated for 16 hours at 20° C. The material was then buffer exchanged into Phosphate Buffered Saline (being, 137 mM NaCl, 2.7 mM KCl, 10 mM Na2HPO4, 1.8 mM K2HPO4, pH 7.4) and the material quantified and the degree of Tb conjugation determined by measuring the absorption at 280 nm and 343 nm. The integrity of the conjugated material was determined by analytical size exclusion chromatography on a 5200 HR 10×300 column (GE Healthcare). Typical conjugation ratios were 4:1 Tb:IgE-Fc. • Young R J., Owens, […]., Chan C M W., Shi J., Hide […]., Henry A J., Sutton B J., and Gould H J (1995) Protein Engineering 8:193-199 Protocol for preparation of […] reagent […] Oxidation was quenched with the addition of 40 μl of ethanediol and incubation for 60 minutes at 22° C. The protein was buffer exchanged in to conjugation buffer (50 mM NaHCO3, 150 mM NaCl, pH 9.5) and concentrated to 750 μM. 175 nmoles of protein was added to 1 mg of Alexa FluorTM 488 hydrazide (Invitrogen) and incubated for 16 hours at 22° C. […] The protein was buffer exchanged into Phosphate Buffered Saline (being, 137 mM NaCl, 2.7 mM KCl, 10 mM Na2HPO4, 1.8 mM K2HPO4, pH 7.4) and the material quantified and the degree of Alexa FluorTM 488 conjugation determined by measuring the absorption at 280 nm and 495 nm. The integrity of the conjugated material was determined by analytical size exclusion chromatography on a 5200 HR 10×300 column (GE Healthcare). Typical conjugation ratios were 2:1 Alexa FluorTM488: sFcεR1α • Cook J P D., Henry […]., Owens R J., Sutton B J., and Gould H J (1997) Biochemistry 36:15579-15588 The aim was to measure binding of IgE-Tb to receptor, and the inhibition thereof by compounds, using an in vitro Fluorescence Resonance Energy Transfer (FRET) Assay. Reagents FRET reagents used were IgE labelled with Terbium (FRET donor), and soluble IgE receptor FcεRIα with a Y131A mutation, labelled with Alexa FluorTM 488 (FRET acceptor). Unlabelled FcεRIα was also used to generate a background control. The assay buffer consisted of 20 mM Tris pH7.2, 150 mM NaCl, and 0.002% Tween, 1% DMSO. Assay Reaction For most of the examples the assay was conducted according to the following: Each assay reaction was conducted in a volume of 25 μl in a 384-well half-volume plate. 10 point compound serial dilutions (3-fold) were generated in DMSO at a concentration of ×50 that of the final assay concentration (FAC). Compound solutions were then prepared by IgE-Tb diluting 10-fold in assay buffer. For the assay, 5 μl of diluted compound was added to 10 μl of IgE-Tb, followed by addition of 10111 FcεRIα-Y131A-AF488. FRET reagents FACs were 5 nM IgE-Tb, 25 nM FcεRIα-Y131A-AF488. Usually the top FAC of compound in the assay was 10 μM. The final DMSO concentration was 2%. The minimum signal (MIN) was measured by adding 5 μl unlabelled FcεRIα at 1 μM (FAC=200 nM) to the FRET reagents. The maximum FRET signal (MAX) was measured in wells containing FRET reagents but no compound. The assay was incubated for 2 hours at room temperature, protected from light and evaporation, and with gentle agitation. FRET Measurement Measurement of FRET for each well was carried out by exciting at 330 nm and measuring emission at 495/520 nm using an Envision plate reader (Perkin Elmer). FRET ratio was calculated as follows: Emission at 520/Emission at 495×1000. The FRET ratio was used for the data analysis. Data Analysis Z' was calculated as follows (σ=standard deviation and μ=mean): 1-((3×σMAX)+(3×σMIN))/(μMAX-/μMIN) Z' above 0.5 was considered a good assay. Background signal (MIN) was subtracted from all wells. Using the background subtracted values, the percent inhibition by compound in each test-well was calculated as follows: 100-Test-well FRET ratio/MAX FRET ratio×100. […]

T1 sequence (P0DOX4 224-547 N265Q/N371Q limits assumed): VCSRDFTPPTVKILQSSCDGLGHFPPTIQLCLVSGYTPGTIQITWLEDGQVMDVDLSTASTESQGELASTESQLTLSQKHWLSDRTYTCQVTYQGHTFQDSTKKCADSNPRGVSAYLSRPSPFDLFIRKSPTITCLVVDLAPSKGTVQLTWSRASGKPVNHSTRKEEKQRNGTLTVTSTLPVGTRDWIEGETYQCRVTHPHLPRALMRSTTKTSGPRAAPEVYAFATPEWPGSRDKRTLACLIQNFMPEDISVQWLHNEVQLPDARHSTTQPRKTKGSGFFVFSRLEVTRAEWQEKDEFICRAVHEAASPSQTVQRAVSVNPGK

| Compound | IC50 [nM] |
| --- | --- |
| CC(C)CNS(=O)(=O)c1c2c(cc3cnc(C4CC4)cc13)CC(C(=O)NCc1ccccc1)CC2 (centres unmarked) [Example 7, N-benzyl-3-cyclopropyl-5-(2-methylpropylsulfamoyl)-6,7,8,9-tetrahydrobenzo[g]isoquinoline-8-carboxamide] | 100 to 1000 |
| CC(C)CNS(=O)(=O)c1c2c(cc3cnc(C4CC4)cc13)CC(c1ncc(-c3cccnc3)[nH]1)CC2 (centres unmarked) [Example 22, 3-cyclopropyl-N-(2-methylpropyl)-8-(5-pyridin-3-yl-1H-imidazol-2-yl)-6,7,8,9-tetrahydrobenzo[g]isoquinoline-5-sulfonamide] | 100 to 1000 |
| Cc1cc(Nc2nncn2C2CCc3cc4cnc(C5CC5)cc4c(S(=O)(=O)NCC(C)(C)F)c3C2)n(C)n1 (centres unmarked) [Example 2, 3-cyclopropyl-7-[3-[(2,5-dimethylpyrazol-3-yl)amino]-1,2,4-triazol-4-yl]-N-(2-fluoro-2-methylpropyl)-6,7,8,9-tetrahydrobenzo[g]isoquinoline-5-sulfonamide] | 100 to 1000 |
| CCNc1c(NC2CCc3cc4cnc(C5CC5)cc4c(S(=O)(=O)NCC(C)C)c3C2)c(=O)c1=O (centres unmarked) [Example 19, 3-cyclopropyl-7-[[2-(ethylamino)-3,4-dioxocyclobuten-1-yl]amino]-N-(2-methylpropyl)-6,7,8,9-tetrahydrobenzo[g]isoquinoline-5-sulfonamide] | 1 to 50 |
| Cc1cc(-n2cnnc2NC2CCc3cc4cnc(C5CC5)cc4c(S(=O)(=O)NCC(C)C)c3C2)n(C)n1 (centres unmarked) [Example 12, 3-cyclopropyl-7-[[4-(2,5-dimethylpyrazol-3-yl)-1,2,4-triazol-3-yl]amino]-N-(2-methylpropyl)-6,7,8,9-tetrahydrobenzo[g]isoquinoline-5-sulfonamide] | 100 to 1000 |
| Cc1cc(-n2cnnc2NC2CCc3c(cc4cnc(C5CC5)cc4c3S(=O)(=O)NCC(C)(C)F)C2)n(C)n1 (centres unmarked) [Example 24, 3-cyclopropyl-8-[[4-(2,5-dimethylpyrazol-3-yl)-1,2,4-triazol-3-yl]amino]-N-(2-fluoro-2-methyl-propyl)-6,7,8,9-tetrahydrobenzo[g]isoquinoline-5-sulfonamide formic acid] | 100 to 2000 |
| CC(C)CNS(=O)(=O)c1c2c(cc3cnc(C4CC4)cc13)CC(C(=O)NCC(C)(C)C)CC2 (centres unmarked) [Example 6, 3-cyclopropyl-N-(2,2-dimethylpropyl)-5-(2-methylpropylsulfamoyl)-6,7,8,9-tetrahydrobenzo[g]isoquinoline-8-carboxamide] | 100 to 2000 |
| CC(C)CNS(=O)(=O)c1c2c(cc3cnc(C4CC4)cc13)CCC(C(=O)NCC(C)(C)C)C2 (centres unmarked) [Example 5, 3-cyclopropyl-N-(2,2-dimethylpropyl)-5-(2-methylpropylsulfamoyl)-6,7,8,9-tetrahydrobenzo[g]isoquinoline-7-carboxamide] | 50 to 100 |
| CC(C)CNS(=O)(=O)c1c2c(cc3cnc(C4CC4)cc13)CCC(n1cnnc1Nc1cccnc1)C2 (centres unmarked) [Example 14, 3-cyclopropyl-N-(2-methylpropyl)-7-[3-(pyridin-3-ylamino)-1,2,4-triazol-4-yl]-6,7,8,9-tetrahydrobenzo[g]isoquinoline-5-sulfonamide] | 1 to 50 |
| Cc1ccc(N/C(=N/C#N)NC2CCc3cc4cnc(C5CC5)cc4c(S(=O)(=O)NCC(C)(C)F)c3C2)cc1 (centres unmarked) [Example 3, 2-Cyano-1-[3-cyclopropyl-5-[(2-fluoro-2-methyl-propyl)sulfamoyl]-6,7,8,9-tetrahydrobenzo[g]isoquinolin-7-yl]-3-(p-tolyl)guanidine] | 100 to 1000 |
| Cc1nnc(-c2ccc(NC3CCc4cc5cnc(C6CC6)cc5c(S(=O)(=O)NCC(C)(C)F)c4C3)cn2)o1 (centres unmarked) [Example 4, 3-cyclopropyl-N-(2-fluoro-2-methylpropyl)-7-[[6-(5-methyl-1,3,4-oxadiazol-2-yl)pyridin-3-yl]amino]-6,7,8,9-tetrahydrobenzo[g]isoquinoline-5-sulfonamide] | 100 to 1000 |
| CC(C)CNS(=O)(=O)c1c2c(cc3cnc(C4CC4)cc13)CCC(n1cnnc1NCC1CC1)C2 (centres unmarked) [Example 16, 3-cyclopropyl-7-[3-(cyclopropylmethylamino)-1,2,4-triazol-4-yl]-N-(2-methylpropyl)-6,7,8,9-tetrahydrobenzo[g]isoquinoline-5-sulfonamide] | 1 to 50 |
| CC(C)CNS(=O)(=O)c1c2c(cc3cnc(C4CC4)cc13)CCC(c1ncc(-c3cccnc3)[nH]1)C2 (centres unmarked) [Example 21, 3-cyclopropyl-N-(2-methylpropyl)-7-(5-pyridin-3-yl-1H-imidazol-2-yl)-6,7,8,9-tetrahydrobenzo[g]isoquinoline-5-sulfonamide] | 1 to 50 |
| Cc1ccc2c(C(=O)NC3CCc4cc5cnc(C6CC6)cc5c(S(=O)(=O)NCC(C)C)c4C3)c[nH]c2c1 (centres unmarked) [Example 11, N-[3-cyclopropyl-5-(2-methylpropylsulfamoyl)-6,7,8,9-tetrahydrobenzo[g]isoquinolin-7-yl]-6-methyl-1H-indole-3-carboxamide] | 100 to 1000 |
| CC(C)CNS(=O)(=O)c1c2c(cc3cnc(C4CC4)cc13)CCC(Nc1nncn1-c1cccnc1)C2 (centres unmarked) [Example 15, 3-cyclopropyl-N-(2-methylpropyl)-7-[(4-pyridin-3-yl-1,2,4-triazol-3-yl)amino]-6,7,8,9-tetrahydrobenzo[g]isoquinoline-5-sulfonamide] | 100 to 1000 |
| Cc1nnc(-c2ccc(N[C@@H]3CCc4cc5cnc(C6CC6)cc5c(S(=O)(=O)NCC(C)C)c4C3)cn2)o1 [Example 17, (7R)-3-cyclopropyl-7-[[6-(5-methyl-1,3,4-oxadiazol-2-yl)pyridin-3-yl]amino]-N-(2-methylpropyl)-6,7,8,9-tetrahydrobenzo[g]isoquinoline-5-sulfonamide] | 100 to 1000 |
| Cc1cc(-n2ccnc2NC2CCc3cc4cnc(C5CC5)cc4c(S(=O)(=O)NCC(C)C)c3C2)n(C)n1 (centres unmarked) [Example 20, 3-cyclopropyl-74(1-(2,5-dimethylpyrazol-3-yl)imidazol-2-yl]aminol-N-(2-methylpropyl)-6,7,8,9-tetrahydrobenzo[g]isoquinoline-5-sulfonamide] | 100 to 1000 |
| CC(C)CNS(=O)(=O)c1c2c(cc3cnc(C4CC4)cc13)CCC(C(=O)NCc1ccccc1)C2 (centres unmarked) [Example 8, N-benzyl-3-cyclopropyl-5-(2-methylpropylsulfamoyl)-6,7,8,9-tetrahydrobenzo[g]isoquinoline-7-carboxamide] | 1 to 50 |
| Cc1nnc(-c2ccc(N[C@H]3CCc4cc5cnc(C6CC6)cc5c(S(=O)(=O)NCC(C)C)c4C3)cn2)o1 [Example 18, (7S)-3-cyclopropyl-7-[[6-(5-methyl-1,3,4-oxadiazol-2-yl)pyridin-3-yl]amino]-N-(2-methylpropyl)-6,7,8,9-tetrahydrobenzo[g]isoquinoline-5-sulfonamide] | 50 to 100 |
| Cc1cc(Nc2nncn2C2CCc3c(cc4cnc(C5CC5)cc4c3S(=O)(=O)NCC(C)(C)F)C2)n(C)n1 (centres unmarked) [Example 23, 3-cyclopropyl-8-[3-[(2,5-dimethylpyrazol-3-yl)amino]-1,2,4-triazol-4-yl]-N-(2-fluoro-2-methylpropyl)-6,7,8,9-tetrahydrobenzo[g]isoquinoline-5-sulfonamide] | 100 to 2000 |
